The values that follow are results of earlier work, collected in patent publication US20060251623A1, “Packaged virus-like particles” (priority 2003, published 2006).

One data set deals with blood cells. To be noted: Kuramoto E. et al., Japanese Journal Cancer Research 83, 1128-1131 (1992).
The subject of data set [1] is VLP-induced CTL responses. Particulars: TLR ligand alone compared with CpGs; Schwarz et al., (2003) Eur. J. Immunol., 33, 1465-1470.

As to “GGGGGGGGGGGACGATCGTCGGGGGGGGGG [SEQ ID NO: 54]”, in the data set with blood cells, the “Stimulation of blood cells in vitro” value is “able to stimulate blood cells in vitro”. Consider flagellin, for which the “Enhancement of VLP-induced CTL responses” value in data set [1] is recorded as “failed to enhance VLP-induced CTL responses in a way similar to CpGs”. As to “polyinosinic-polycytidylic acid [poly (I:C)]”, in data set [1], the “Enhancement of VLP-induced CTL responses” value is on record as “failed to enhance VLP-induced CTL responses in a way similar to CpGs”. For `CC(C)Cn1cnc2c(N)nc3ccccc3c21` [imiquimode], in data set [1], the “Enhancement of VLP-induced CTL responses” value was “failed to enhance VLP-induced CTL responses in a way similar to CpGs”.
